Measured values taken from PubChem BioAssay (NCI).
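Grown in 96-well plates, cells were treated for 48 hours with each compound at five concentrations. Insufficient inhibition: endpoint recorded as highest concentration tested. The concentration for full growth arrest is given as TGI.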

Experiments:
Experiment in all cases: NCI-60 cell line screen, 48 h
[1] = system: 786-0 renal
[2] = system: A498 renal
[3] = system: A549 NSCLC
[4] = system: ACHN renal
[5] = system: BT-549 breast
[6] = system: CAKI-1 renal
[7] = system: CCRF-CEM leukemia
[8] = system: COLO 205 colon
[9] = system: DU-145 prostate
[10] = system: EKVX NSCLC
[11] = system: HCC-2998 colon
[12] = system: HCT-116 colon
[13] = system: HCT-15 colon
[14] = system: HL-60(TB) leukemia
[15] = system: HOP-62 NSCLC
[16] = system: HOP-92 NSCLC
[17] = system: HS 578T breast
[18] = system: HT29 colon
[19] = system: IGROV1 ovarian
[20] = system: K-562 leukemia
[21] = system: KM12 colon
[22] = system: LOX IMVI melanoma
[23] = system: M14 melanoma
[24] = system: MALME-3M melanoma
[25] = system: MCF7 breast
[26] = system: MDA-MB-231 breast
[27] = system: MDA-MB-435
[28] = system: MDA-N
[29] = system: MOLT-4 leukemia
[30] = system: NCI-H226 lung
[31] = system: NCI-H23 lung
[32] = system: NCI-H460 lung
[33] = system: NCI-H522 lung
[34] = system: NCI/ADR-RES ovarian
[35] = system: OVCAR-3 ovarian
[36] = system: OVCAR-4 ovarian
[37] = system: OVCAR-8 ovarian
[38] = system: PC-3 prostate
[39] = system: RXF 393 renal
[40] = system: SF-268 CNS
[41] = system: SF-295 CNS
[42] = system: SF-539 CNS
[43] = system: SK-MEL-2 melanoma
[44] = system: SK-MEL-5 melanoma
[45] = system: SK-OV-3 ovarian
[46] = system: SN12C renal
[47] = system: SNB-19 CNS
[48] = system: SNB-75 CNS
[49] = system: SR leukemia
[50] = system: SW-620 colon
[51] = system: T-47D breast
[52] = system: TK-10 renal
[53] = system: U251 CNS
[54] = system: UACC-257 melanoma
[55] = system: UACC-62 melanoma
[56] = system: UO-31 renal
[57] = system: OVCAR-5 ovarian
[58] = system: SK-MEL-28 melanoma
[59] = system: RPMI-8226 leukemia

Structure (SMILES): OC1(c2ccccc2)CSc2ncnn21 (centres undefined)
- TGI [1]: > 100 µM
- TGI [2]: > 100 µM
- TGI [3]: > 100 µM
- TGI [4]: > 100 µM
- TGI [5]: > 100 µM
- TGI [6]: > 100 µM
- TGI [7]: > 100 µM
- TGI [8]: > 100 µM
- TGI [9]: > 100 µM
- TGI [10]: > 100 µM
- TGI [11]: > 100 µM
- TGI [12]: > 100 µM
- TGI [13]: > 100 µM
- TGI [14]: > 100 µM
- TGI [15]: > 100 µM
- TGI [16]: > 100 µM
- TGI [17]: > 100 µM
- TGI [18]: > 100 µM
- TGI [19]: > 100 µM
- TGI [20]: > 100 µM
- TGI [21]: > 100 µM
- TGI [22]: > 100 µM
- TGI [23]: > 100 µM
- TGI [24]: > 100 µM
- TGI [25]: > 100 µM
- TGI [26]: > 100 µM
- TGI [27]: > 100 µM
- TGI [28]: > 100 µM
- TGI [29]: > 100 µM
- TGI [30]: > 100 µM
- TGI [31]: > 100 µM
- TGI [32]: > 100 µM
- TGI [33]: > 100 µM
- TGI [34]: > 100 µM
- TGI [35]: > 100 µM
- TGI [36]: > 100 µM
- TGI [37]: > 100 µM
- TGI [38]: > 100 µM
- TGI [39]: > 100 µM
- TGI [40]: > 100 µM
- TGI [41]: > 100 µM
- TGI [42]: > 100 µM
- TGI [43]: > 100 µM
- TGI [44]: > 100 µM
- TGI [45]: > 100 µM
- TGI [46]: > 100 µM
- TGI [47]: > 100 µM
- TGI [48]: > 100 µM
- TGI [49]: > 100 µM
- TGI [50]: > 100 µM
- TGI [51]: > 100 µM
- TGI [52]: > 100 µM
- TGI [53]: > 100 µM
- TGI [54]: > 100 µM
- TGI [55]: > 100 µM
- TGI [56]: > 100 µM

Structure (SMILES): COc1ccc(CN=C2N/C(=C\c3ccccc3Cl)C(=O)N2C)cc1
- TGI [1]: 36.1 µM
- TGI [2]: 77.9 µM
- TGI [3]: > 100 µM
- TGI [4]: > 100 µM
- TGI [5]: 94.8 µM
- TGI [6]: > 100 µM
- TGI [8]: 58.8 µM
- TGI [9]: > 100 µM
- TGI [10]: > 100 µM
- TGI [11]: 59.9 µM
- TGI [12]: 39.3 µM
- TGI [13]: > 100 µM
- TGI [14]: 57.9 µM
- TGI [15]: > 100 µM
- TGI [16]: 63.4 µM
- TGI [17]: > 100 µM
- TGI [18]: 57.2 µM
- TGI [19]: 62.6 µM
- TGI [20]: > 100 µM
- TGI [21]: 52.2 µM
- TGI [22]: 43 µM
- TGI [23]: 36.2 µM
- TGI [24]: > 100 µM
- TGI [25]: 90.2 µM
- TGI [26]: 96.9 µM
- TGI [27]: 46.8 µM
- TGI [28]: 44.5 µM
- TGI [29]: > 100 µM
- TGI [30]: > 100 µM
- TGI [32]: > 100 µM
- TGI [33]: 51.1 µM
- TGI [34]: > 100 µM
- TGI [35]: 52.4 µM
- TGI [36]: 86.4 µM
- TGI [57]: > 100 µM
- TGI [37]: 77.4 µM
- TGI [38]: 96.6 µM
- TGI [39]: > 100 µM
- TGI [40]: > 100 µM
- TGI [41]: > 100 µM
- TGI [42]: 72.7 µM
- TGI [43]: 42.8 µM
- TGI [58]: > 100 µM
- TGI [44]: 43.2 µM
- TGI [45]: > 100 µM
- TGI [46]: 39.8 µM
- TGI [47]: > 100 µM
- TGI [48]: 38.4 µM
- TGI [49]: 90 µM
- TGI [50]: 50.1 µM
- TGI [51]: 48.8 µM
- TGI [52]: > 100 µM
- TGI [53]: 40.7 µM
- TGI [54]: > 100 µM
- TGI [55]: 37.6 µM

Structure (SMILES): O=c1[nH]cnc2[nH]cc(CN3CCCCC3)c12
- TGI [1]: > 100 µM
- TGI [2]: > 100 µM
- TGI [3]: > 100 µM
- TGI [4]: > 100 µM
- TGI [5]: > 100 µM
- TGI [6]: > 100 µM
- TGI [7]: 36.2 µM
- TGI [8]: > 100 µM
- TGI [9]: > 100 µM
- TGI [10]: > 100 µM
- TGI [12]: 30.6 µM
- TGI [13]: > 100 µM
- TGI [14]: 38.2 µM
- TGI [15]: > 100 µM
- TGI [16]: > 100 µM
- TGI [17]: > 100 µM
- TGI [18]: > 100 µM
- TGI [19]: > 100 µM
- TGI [20]: > 100 µM
- TGI [21]: > 100 µM
- TGI [22]: > 100 µM
- TGI [23]: > 100 µM
- TGI [24]: > 100 µM
- TGI [25]: > 100 µM
- TGI [26]: > 100 µM
- TGI [27]: > 100 µM
- TGI [28]: > 100 µM
- TGI [29]: > 100 µM
- TGI [30]: > 100 µM
- TGI [31]: > 100 µM
- TGI [32]: 43.8 µM
- TGI [33]: > 100 µM
- TGI [34]: > 100 µM
- TGI [35]: > 100 µM
- TGI [36]: > 100 µM
- TGI [57]: > 100 µM
- TGI [37]: > 100 µM
- TGI [38]: > 100 µM
- TGI [59]: 87.2 µM
- TGI [39]: > 100 µM
- TGI [40]: > 100 µM
- TGI [41]: > 100 µM
- TGI [42]: > 100 µM
- TGI [43]: > 100 µM
- TGI [58]: > 100 µM
- TGI [44]: > 100 µM
- TGI [45]: > 100 µM
- TGI [46]: > 100 µM
- TGI [47]: > 100 µM
- TGI [48]: > 100 µM
- TGI [49]: > 100 µM
- TGI [50]: > 100 µM
- TGI [51]: > 100 µM
- TGI [52]: > 100 µM
- TGI [53]: > 100 µM
- TGI [54]: 87.3 µM
- TGI [55]: > 100 µM
- TGI [56]: > 100 µM
